Assay results published in PubChem BioAssay (NCI).
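All cell lines were grown in 96-well plates and treated with compound for 48 hours. TGI marks complete inhibition of growth.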

What was measured:
Test in all cases: NCI tumour cell line growth inhibition, 48 h
786-0 renal = system: 786-0 renal
A549 NSCLC = system: A549 NSCLC
ACHN renal = system: ACHN renal
CAKI-1 renal = system: CAKI-1 renal
CCRF-CEM leukemia = system: CCRF-CEM leukemia
COLO 205 colon = system: COLO 205 colon
DLD-1 colon = system: DLD-1 colon
DMS 114 small cell lung = system: DMS 114 small cell lung
EKVX NSCLC = system: EKVX NSCLC
HCC-2998 colon = system: HCC-2998 colon
HCT-116 colon = system: HCT-116 colon
HCT-15 colon = system: HCT-15 colon
HL-60(TB) leukemia = system: HL-60(TB) leukemia
HOP-18 NSCLC = system: HOP-18 NSCLC
HOP-62 NSCLC = system: HOP-62 NSCLC
HOP-92 NSCLC = system: HOP-92 NSCLC
HT29 colon = system: HT29 colon
IGROV1 ovarian = system: IGROV1 ovarian
K-562 leukemia = system: K-562 leukemia
KM12 colon = system: KM12 colon
KM20L2 colon = system: KM20L2 colon
LOX IMVI melanoma = system: LOX IMVI melanoma
LXFL 529 NSCLC = system: LXFL 529 NSCLC
M14 melanoma = system: M14 melanoma
M19-MEL melanoma = system: M19-MEL melanoma
MALME-3M melanoma = system: MALME-3M melanoma
MOLT-4 leukemia = system: MOLT-4 leukemia
NCI-H460 lung = system: NCI-H460 lung
NCI-H522 lung = system: NCI-H522 lung
OVCAR-3 ovarian = system: OVCAR-3 ovarian
OVCAR-4 ovarian = system: OVCAR-4 ovarian
OVCAR-5 ovarian = system: OVCAR-5 ovarian
OVCAR-8 ovarian = system: OVCAR-8 ovarian
RPMI-8226 leukemia = system: RPMI-8226 leukemia
RXF-631 renal = system: RXF-631 renal
SF-268 CNS = system: SF-268 CNS
SF-295 CNS = system: SF-295 CNS
SF-539 CNS = system: SF-539 CNS
SK-MEL-2 melanoma = system: SK-MEL-2 melanoma
SK-MEL-28 melanoma = system: SK-MEL-28 melanoma
SK-OV-3 ovarian = system: SK-OV-3 ovarian
SNB-19 CNS = system: SNB-19 CNS
SNB-75 CNS = system: SNB-75 CNS
SR leukemia = system: SR leukemia
SW-620 colon = system: SW-620 colon
TK-10 renal = system: TK-10 renal
UACC-257 melanoma = system: UACC-257 melanoma
UACC-62 melanoma = system: UACC-62 melanoma
UO-31 renal = system: UO-31 renal
XF 498 CNS = system: XF 498 CNS
A498 renal = system: A498 renal
DMS 273 small cell lung = system: DMS 273 small cell lung
NCI-H23 lung = system: NCI-H23 lung
RXF 393 renal = system: RXF 393 renal
SK-MEL-5 melanoma = system: SK-MEL-5 melanoma
SN12C renal = system: SN12C renal
SNB-78 CNS = system: SNB-78 CNS
U251 CNS = system: U251 CNS

O=c1oc2c3ccc4ccccc4c3n(CCCN3CCCCC3)c2c2ccccc12
TGI (786-0 renal): 37.2 µM
TGI (A549 NSCLC): > 100 µM
TGI (ACHN renal): > 100 µM
TGI (CAKI-1 renal): > 100 µM
TGI (CCRF-CEM leukemia): > 100 µM
TGI (COLO 205 colon): > 100 µM
TGI (DLD-1 colon): > 100 µM
TGI (DMS 114 small cell lung): > 100 µM
TGI (EKVX NSCLC): > 100 µM
TGI (HCC-2998 colon): > 100 µM
TGI (HCT-116 colon): > 100 µM
TGI (HCT-15 colon): > 100 µM
TGI (HL-60(TB) leukemia): 42.9 µM
TGI (HOP-18 NSCLC): > 100 µM
TGI (HOP-62 NSCLC): > 100 µM
TGI (HOP-92 NSCLC): > 100 µM
TGI (HT29 colon): > 100 µM
TGI (IGROV1 ovarian): > 100 µM
TGI (K-562 leukemia): 63.9 µM
TGI (KM12 colon): > 100 µM
TGI (KM20L2 colon): > 100 µM
TGI (LOX IMVI melanoma): > 100 µM
TGI (LXFL 529 NSCLC): > 100 µM
TGI (M14 melanoma): 24.2 µM
TGI (M19-MEL melanoma): > 100 µM
TGI (MALME-3M melanoma): 41 µM
TGI (MOLT-4 leukemia): > 100 µM
TGI (NCI-H460 lung): > 100 µM
TGI (NCI-H522 lung): > 100 µM
TGI (OVCAR-3 ovarian): > 100 µM
TGI (OVCAR-4 ovarian): > 100 µM
TGI (OVCAR-5 ovarian): > 100 µM
TGI (OVCAR-8 ovarian): > 100 µM
TGI (RPMI-8226 leukemia): > 100 µM
TGI (RXF-631 renal): > 100 µM
TGI (SF-268 CNS): > 100 µM
TGI (SF-295 CNS): > 100 µM
TGI (SF-539 CNS): 40.8 µM
TGI (SK-MEL-2 melanoma): > 100 µM
TGI (SK-MEL-28 melanoma): 50.3 µM
TGI (SK-OV-3 ovarian): > 100 µM
TGI (SNB-19 CNS): > 100 µM
TGI (SNB-75 CNS): > 100 µM
TGI (SR leukemia): > 100 µM
TGI (SW-620 colon): > 100 µM
TGI (TK-10 renal): > 100 µM
TGI (UACC-257 melanoma): > 100 µM
TGI (UACC-62 melanoma): > 100 µM
TGI (UO-31 renal): > 100 µM
TGI (XF 498 CNS): > 100 µM

O=S(=O)(SCCCCSS(=O)(=O)c1ccc(Cl)cc1)c1ccc(Cl)cc1
TGI (786-0 renal): 21.4 µM
TGI (A498 renal): 32.9 µM
TGI (A549 NSCLC): 37.2 µM
TGI (ACHN renal): 31 µM
TGI (CAKI-1 renal): 27.8 µM
TGI (CCRF-CEM leukemia): 4.5 µM
TGI (COLO 205 colon): 28.2 µM
TGI (DLD-1 colon): 27.5 µM
TGI (DMS 114 small cell lung): 20.7 µM
TGI (DMS 273 small cell lung): 23.3 µM
TGI (HCC-2998 colon): 34.1 µM
TGI (HCT-116 colon): 24.3 µM
TGI (HCT-15 colon): 27.4 µM
TGI (HL-60(TB) leukemia): 8.85 µM
TGI (HOP-18 NSCLC): 32.9 µM
TGI (HOP-62 NSCLC): 36.6 µM
TGI (HOP-92 NSCLC): 21 µM
TGI (HT29 colon): 32.1 µM
TGI (IGROV1 ovarian): 19.4 µM
TGI (K-562 leukemia): 48.8 µM
TGI (KM12 colon): 22.8 µM
TGI (KM20L2 colon): 33.8 µM
TGI (LOX IMVI melanoma): 11.3 µM
TGI (LXFL 529 NSCLC): 24.7 µM
TGI (M14 melanoma): 27.7 µM
TGI (M19-MEL melanoma): 30.8 µM
TGI (MALME-3M melanoma): 32.4 µM
TGI (MOLT-4 leukemia): 10.1 µM
TGI (NCI-H23 lung): 22.9 µM
TGI (NCI-H460 lung): 29.5 µM
TGI (NCI-H522 lung): 17 µM
TGI (OVCAR-3 ovarian): 28 µM
TGI (OVCAR-4 ovarian): 33.5 µM
TGI (OVCAR-5 ovarian): 30.4 µM
TGI (OVCAR-8 ovarian): 25.5 µM
TGI (RPMI-8226 leukemia): 28.5 µM
TGI (RXF 393 renal): 34.2 µM
TGI (RXF-631 renal): 21.5 µM
TGI (SF-268 CNS): 29.1 µM
TGI (SF-295 CNS): 15.2 µM
TGI (SF-539 CNS): 25 µM
TGI (SK-MEL-2 melanoma): 33.2 µM
TGI (SK-MEL-28 melanoma): 34.3 µM
TGI (SK-MEL-5 melanoma): 30.5 µM
TGI (SK-OV-3 ovarian): 30.1 µM
TGI (SN12C renal): 22.5 µM
TGI (SNB-19 CNS): 28 µM
TGI (SNB-75 CNS): 33.3 µM
TGI (SNB-78 CNS): 56.4 µM
TGI (SW-620 colon): 23 µM
TGI (TK-10 renal): 47.7 µM
TGI (U251 CNS): 21 µM
TGI (UACC-257 melanoma): 37.2 µM
TGI (UACC-62 melanoma): 28.9 µM
TGI (UO-31 renal): 21.1 µM
